From patent US10265297B2 (Council of Scientific & Industrial Research, priority 2016, dated 2019)
Marks after values point to notes of the source that are not given here.

Experiments:
[1] = system: ovariectomized Sprague Dawley rats; experiment: Ovariectomized (OVx) rats: trabecular microarchitecture of femur and uterine weight; format: in vivo; details: for BV/TV / Po (tot) (Total porosity percent) / SMI / Tb.No / Tb.Pf (Trabecular pattern factor) / Tb.Sp: femur epiphysis
Method: The study was conducted in accordance with current legislation on animal experiments [Institutional Animal Ethical Committee (IAEC)] at C.D.R.I. […] Sprague Dawley rats weighing ˜180-200 gm were either bilaterally ovariectomized (OVx) or exposed to a sham surgical procedure. All rats were individually housed at 21° C., in 12-h light:12-h dark cycles. All rats had excess to normal chow diet and water ad libitum. After OVx, the rats were left for 12 weeks to develop osteopenia. After 12 weeks, extract treatment in the form of gavage (50.0 mg and 100 mg/kg body weight), and iPTH 30 μg·kg^−1 three times a week was given daily. Equal numbers of OVx and sham operated rats served as the control, and were given vehicle (20% ethanol). The rats were weighed each week. At the end of 12 weeks, urine was to be collected for biochemical assessment therefore the rats were caged individually in plastic cages fitted with steel mesh for a total period of 48 h preceding autopsy and had free access to normal chow diet and water for the first 24 h initially for of acclimatization and then during the next 24 h, animals received only water ad libitum. After twenty-four hours of fasting urine samples were collected in fresh containers, centrifuged at 2000 rpm at room temperature and stored at […] until analyzed. Rats were then euthanized. At autopsy, blood samples were collected by cardiac puncture in tubes. Uteri were carefully excised, gently blotted, weighed, and fixed for histology and histomorphometry. About 5 mm pieces from the middle segment of each uterus were dehydrated in ascending grades of ethanol, cleared in xylene, and embedded in paraffin wax using standard procedures. Photomicrographs of sections were obtained using a Leica DC 300 camera and Leica IM50 Image Acquisition software fitted to a Leica DMLB microscope. Histomorphometric measurements were done using Leica Qwin-Semiautomatic image Analysis software. μCT (both 2-D and 3-D) determination of excised bones was carried out using the Sky Scan 1076 μCT scanner (Aartselaar, Belgium) using the cone-beam reconstruction software version 2.6 based on the Feldkamp algorithm (Skyscan).
Trabecular response to FSE treatment of OVx rats was quantified at the femur epiphysis. […] Efficacy of OVx was confirmed by studying uterine weight. […] OVx group had reduced uterine weight as compared with the ovary intact, sham group. […] E2 increased uterine weight in OVx rats equal to the sham group.

[2] = Oral pharmacokinetics in male Sprague Dawley rats; format: in vivo; details: rat, serum, 250 mg/kg; for Vd/F: read-out: Vss/F
calvarial osteoblasts = experiment: Mineralization (Alizarin Red-S) in calvarial osteoblasts; format: cell-based; details: various concentration, 18 days, compared to untreated cells
Method: FIG. 5A-5C: Activity of the compound C003/K008 isolated from the extract was assessed by measuring ALP activity in calvarial osteoblast cells. At the end of the experiment, ALP activity was measured colorimetrically. […] (*p<0.05, **p<0.01 and ***p<0.001 when compared with control). Calvarial osteoblasts were treated with compound C003/K008 at various concentration for 18 days to induce mineralization. […] Values are expressed as mean±SEM. ***p<0.001 and *p<0.05 when compared with control (untreated cells).
Compound (2492/K008) was isolated from butanolic fraction and alkaline phosphatase activity and mineralization in calvarial osteoblast cells assessed with different concentrations of the test compound or vehicle for 48 hrs in growth medium supplemented with 10 mM β-glycerophosphate and 50 μg/ml ascorbic acid. At the end of incubation period, cells were washed with PBS and kept in −80° C. for 30 min and then at 37° C. for 30 min. ALP activity was measured using p-nitrophenylphosphate (PNPP) as substrate and absorbance was read at 405 nm. SE increased the alkaline phosphatase activity from doses ranging from […] as compared to the control with ˜2.0 fold increase in the ALP activity at 1 μM.

[3] = system: drill-hole injury in femur of adult female Sprague Dawley rats; experiment: Drill hole model for fracture healing (micro-CT, calcein labeling, qPCR); format: in vivo; details: 30 μg/kg s.c. injection
Method: Drill-hole injury was created in the mid femur region 1 cm above the knee joint by inserting a drill hole of diameter 0.8 mm in the anterior portion of the diaphysis of the bilateral femurs. Treatment was started next day of injury and continued for 14 days. Each animal received intraperitoneal administration of fluorochrome calcein(20 mg/kg) 24 h before autopsy. After 14 days of treatment, animals were sacrificed and autopsied to collect their femurs for the measurement of bone micro-architectural parameters. Bones were embedded inacrylic material and […] sections were made using an Isomet BoneCutter (Buehler, Lake Bluff, Ill., USA) and photographs taken under confocal microscope LSM 510 Meta, Carl Zeiss, Maple Grove, Minn., USA) aided with appropriate filters. The intensity of calcein binding, was calculated using Carl Zeiss AM 4.2 image-analysis software.
(A) In vivo regeneration of bone to monitor local repair process was done using micro-CT after creation of the hole using on femur of 0.8 mm diameter. […] Modest mineralized calluses appeared at defect and intra-medulla region of treated groups. By day 14, extent of callus mineralization increased, in the intra-medulla region.
The model was made as described above and then treatment of extract and Formulated Spinacea Extraxt (FSE) was started at doses of 250 and 750 mg·kg^−1·day^−1 from the next day of injury and continued for 14 days. After 14 days of treatment as described above, animals were sacrificed and autopsied to collect their femurs for the measurement of bonemicro architectural parameters at the drill-hole site. Bones were embedded inacrylic material and […] sections were made using an Isomet BoneCutter (Buehler, Lake Bluff, Ill., USA) and photographs taken under confocal microscope LSM 510 Meta, Carl Zeiss, Maple Grove, Minn., USA) aided with appropriate filters. The intensity of calcein binding, which is an indicator of the amount of new mineral deposition, was calculated using Carl Zeiss AM 4.2 image-analysis software. […]

Compound: C[C@]12CC[C@@H]3c4ccc(O)cc4CC[C@H]3[C@@H]1CC[C@@H]2O [Compound E2]
- Uteriewt ([1]; Ovx + E2 (0.1 mgkg^−1day^−1)): 329.63 ± 30.44 mg
- BV/TV ([1]; Ovx + E2 (0.1 mgkg^−1day^−1)): 15.97 ± 1.88 %
- Po (tot) (Total porosity percent) ([1]; Ovx + E2 (0.1 mgkg^−1day^−1)): 85.24 ± 2.07%
- SMI ([1]; Ovx + E2 (0.1 mgkg^−1day^−1)): 1.67 ± 0.04
- Tb.No ([1]; Ovx + E2 (0.1 mgkg^−1day^−1)): 1.61 ± 0.23** mm^−1
- Tb.Pf (Trabecular pattern factor) ([1]; Ovx + E2 (0.1 mgkg^−1day^−1)): 6.22 ± 0.72
- Tb.Sp ([1]; Ovx + E2 (0.1 mgkg^−1day^−1)): 0.76 ± 0.1 mm

Compound: COc1c(-c2ccc(O)c(O)c2)oc2cc3c(c(O)c2c1=O)OCO3 [Compound K007, 5,3′,4′-trihydroxy-3-methoxy-6,7-methylenedioxy-flavone]
- AUC(0-t) [2]: 0.039 µg·h/mL
- CL/F [2]: 12.8 L/h/kg
- Cmax [2]: 7.6 ng/mL
- MRT [2]: 3.4 h
- Tmax [2]: 2 h
- Vd/F [2]: 43.3 L/kg

Compound: COc1c(O)cc2oc(-c3ccc(O)c(O)c3)c(OC)c(=O)c2c1O [Compound K008, 5,7,3′,4′-tetrahydroxy-3,6-dimethoxy-flavone]
- formation of mineralized nodules (Alizarin Red-S) (calvarial osteoblasts): increased formation of mineralized nodules
- AUC(0-t) [2]: 0.0233 µg·h/mL
- CL/F [2]: 1.4 L/h/kg
- Cmax [2]: 5 ng/mL
- MRT [2]: 3.9 h
- Tmax [2]: 2 h
- Vd/F [2]: 5.6 L/kg

Compound: PTH: parathyroid hormone, standard marketed anabolic drug, injectable
- Uteriewt ([1]; Ovx + PTH (30 μg/kg bw)): 91.18 ± 3.84 mg
- BV/TV ([1]; Ovx + PTH (30 μg/kg bw)): 22.78 ± 1.76 %
- Po (tot) (Total porosity percent) ([1]; Ovx + PTH (30 μg/kg bw)): 76.79 ± 2.35 %
- SMI ([1]; Ovx + PTH (30 μg/kg bw)): 1.26 ± 0.18
- Tb.No ([1]; Ovx + PTH (30 μg/kg bw)): 2.43 ± 0.19*** mm^−1
- Tb.Pf (Trabecular pattern factor) ([1]; Ovx + PTH (30 μg/kg bw)): 5.31 ± 0.68
- Tb.Sp ([1]; Ovx + PTH (30 μg/kg bw)): 0.63 ± 0.07 mm
- BV/TV [3]: 60.3 ± 1.91 %
- Calcein intensity [3]: 15.3 ± .055 %
- SMI (Index) [3]: 0.65 ± 0.07
